Where two headings read alike, the source gives them in different places.
Experiments:
[1] = test system: IL-2 promoter luciferase reporter in stimulated Jurkat T cells; assay: IL-2 reporter gene assay (transfected Jurkat cells); type: cell-based
Description: The ability of these derivatives to inhibit T cell receptor-mediated IL-2 production was analyzed using an IL-2 reporter gene assay. In this assay, a plasmid encoding a reporter gene (luciferase) under the control of the IL-2 promoter was first introduced into Jurkat T cells by transfection. The transfected Jurkat T cells are then stimulated with two pharmacological agents, phorbol myristyl acetate (PMA), which activates protein kinase C, and inonmycin, which allows calcium ion to enter T cells to activate calmodulin and calcineurin. Together, PMA and ionomycin recapitulate T cell receptor signaling, leading to the activation of the luciferase reporter gene by activating the IL-2 promoter. The ability of PatA and its analogs to block T cell receptor-mediated IL-2 expression was measured by their effects on this reporter gene assay. Su, B., et a., Cell 1994, 77, 727-736.

stability in CDCl3 = type: physicochemical; conditions: CDCl3, 25° C.
cancer cell lines = assay: cell proliferation assay ([3H]-thymidine incorporation), cancer cell lines; type: cell-based
Description: Cell Proliferation Assay. 1×10^5 of indicated cells in each well of a 96-well plate were treated with indicated compounds for 24 h followed by addition of 0.11 μCi of [^3H]-thymidine (6.7 Ci/mmol) per well for 6 h, followed by harvesting to GF/C filtermats using a cell harvester. Filtermats were air-dried and scintillation counted. IC50s were determined from quadruplicate data readings and curve-fitting analysis.

[2] = test system: protein synthesis in HeLa S3 cells; assay: metabolic labelling, protein synthesis ([35S]-methionine/cysteine); type: cell-based
Description: (§1) Metabolic Labelling. About 5000 HeLa S3 cells per well in 96-well plates were cultured overnight in duplicate. One set of plates were washed twice with, then incubated for 20 min in Met and Cys free medium, then exchanged for labeling medium (RPMI 1640 with 10% FBS dialyzed in PBS overnight, and 0.15 mCi/ml [^35S]-Met and [^35S]-Cys) with indicated compounds and final volume of 100 μl per well. After 1 h or 3 h incubation, and two washes with ice-cold PBS, cells were lysed in RIPA buffer, under agitation for 30 min at 4° C. 5 μl of lysate from each well was combined with 25 μl of 1 mg/ml BSA, and added to 96 well plates, followed by addition of 150 μl of 5% TCA in ethanol and incubated at 4° C. for 30 min. Filtration was performed on a vacuum manifold as per manufacturer's instructions with 2 washes of 5% TCA in ethanol, then twice with 100% ethanol. After air-drying, scintillation counting was performed. For the second set, replacement media contained […] [^3H]-uridine and indicated compound, and incubated for 1 or 3 h. Remaining procedure was identical to cell proliferation assay.

[3] = test system: RNA synthesis in HeLa S3 cells; assay: metabolic labelling, RNA synthesis ([3H]-uridine); type: cell-based
Description: as §1

eIF4A = biological target: T1, eIF4A (Homo sapiens, UniProt P60842); assay: B-PatA streptavidin pull-down competition; type: binding; conditions: RKO cell lysate, pre-incubation with competitor
T1 construct: Cell lysates from RKO cells were prepared as previously described; endogenous in cells; host or cells: RKO cell lysate
Description: Streptavidin-agarose Pulldown with B-PatA. Cell lysates from RKO cells were prepared as previously described (Griffith et al., 1997). HeLa lysates were prepared in buffer: 10 mM HEPES-OH, pH 7.6, 10 mM KC2H3O2, and 0.5 mM MgC2H3O2. RRL and WGE were diluted about 12 fold using HeLa lysate buffer. All pulldowns included protease inhibitors. Streptavidin-beads were pre-incubated with 10 mg/ml BSA in buffer for 1 h at 4° C. with mixing. Equal aliquots of lysate (200 μl) were incubated with DMSO or PatA analog for 1 h at 4° C. with mixing, followed by addition of DMSO or B-PatA and incubation for 2 h. Each sample was combined with equal amounts of pre-blocked beads and incubated for 1 h at 4° C. Beads were washed with 3 ml of buffer, boiled in SDS-PAGE loading buffer and analyzed by SDS-PAGE and silver-staining or immunoblotting.

eIF4A-eIF4B = biological target: T2, eIF4A-eIF4B (Homo sapiens, UniProt P60842); assay: 6XHis-eIF4AI pulldown, eIF4A-eIF4B interaction; type: binding; conditions: HeLa lysate; PatA at 100 μM
T2 construct: The entire ORF of human eIF4AI was ligated in-frame into the BamHI and HindIII sites of the pET-28a expression vector; made in house; host or cells: bait from E. coli BL21(DE3); eIF4B endogenous in HeLa lysate
Description: 6XHis-eIF4AI pulldown, Co-immunoprecipitation, and m^7GTP-Sepharose pulldown. For 6XHis-eIF4AI pulldowns, HeLa lysates were prepared as described above. Equal aliquots (200 μl) of lysate were incubated with PatA analogs or DMSO and 8.5 μg of 6XHis-eIF4AI overnight at 4° C., followed by addition of Ni-NTA resin for 1 h, then resin was washed with 3 ml buffer, and boiled in SDS-PAGE loading buffer followed by SDS-PAGE and immunoblotting with indicated antibodies. For co-immunoprecipitation, 293T cells with vector control or pcDNA3-Flag-4B lysates were prepared by pipetting in: 20 mM HEPES, pH 7.4, 100 mM KCl, 0.5% Triton-X-100, 20% glycerol, protease inhibitor and 15 μg/ml RNAse A followed by clearing at 13 000 g (10 min). For DMDA-PatA treated samples, lysis and wash buffers also contained 100 nM DMDA-PatA. Anti-Flag antibody was incubated overnight at 4° C., followed by addition of Protein G beads for 4 h. Beads were washed 3× with 500 μl buffer, boiled in SDS-PAGE loading buffer followed by SDS-PAGE and immunoblotting. m^7GTP-Sepharose was performed as described (Yoder-Hill et al., 1993) with modifications. 30 μl RRL was incubated with DMSO or DMDA-PatA at room temperature for 30 min, diluted with buffer supplemented with DMSO or DMDA-PatA (20 nM), then combined with 50 μl beads for 3 h at 4° C. followed by 4 washes with 1 ml buffer. […]

T1 sequence (P60842 2-406): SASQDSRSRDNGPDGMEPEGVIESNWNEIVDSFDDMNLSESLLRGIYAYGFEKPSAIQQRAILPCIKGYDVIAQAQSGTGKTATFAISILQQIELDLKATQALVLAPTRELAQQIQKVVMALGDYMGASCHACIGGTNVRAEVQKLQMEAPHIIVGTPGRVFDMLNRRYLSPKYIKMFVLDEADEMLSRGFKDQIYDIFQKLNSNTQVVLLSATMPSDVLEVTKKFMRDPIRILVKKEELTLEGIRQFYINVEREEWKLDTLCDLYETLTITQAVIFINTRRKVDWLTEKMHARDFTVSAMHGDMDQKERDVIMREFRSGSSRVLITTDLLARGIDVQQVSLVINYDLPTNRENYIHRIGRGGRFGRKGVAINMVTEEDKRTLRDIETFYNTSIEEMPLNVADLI
T2 sequence (P60842 whole entry): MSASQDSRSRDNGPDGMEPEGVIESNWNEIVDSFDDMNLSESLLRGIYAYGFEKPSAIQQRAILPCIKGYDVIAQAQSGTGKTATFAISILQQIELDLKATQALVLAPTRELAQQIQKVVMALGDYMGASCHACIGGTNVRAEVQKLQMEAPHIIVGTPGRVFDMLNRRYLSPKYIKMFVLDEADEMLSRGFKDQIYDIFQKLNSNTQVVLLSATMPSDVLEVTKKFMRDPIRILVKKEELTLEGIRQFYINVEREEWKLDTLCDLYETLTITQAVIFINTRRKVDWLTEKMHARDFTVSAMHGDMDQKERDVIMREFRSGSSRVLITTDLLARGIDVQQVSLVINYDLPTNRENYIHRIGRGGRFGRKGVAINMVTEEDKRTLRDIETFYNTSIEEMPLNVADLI
T2 sequence (P23588 whole entry partner): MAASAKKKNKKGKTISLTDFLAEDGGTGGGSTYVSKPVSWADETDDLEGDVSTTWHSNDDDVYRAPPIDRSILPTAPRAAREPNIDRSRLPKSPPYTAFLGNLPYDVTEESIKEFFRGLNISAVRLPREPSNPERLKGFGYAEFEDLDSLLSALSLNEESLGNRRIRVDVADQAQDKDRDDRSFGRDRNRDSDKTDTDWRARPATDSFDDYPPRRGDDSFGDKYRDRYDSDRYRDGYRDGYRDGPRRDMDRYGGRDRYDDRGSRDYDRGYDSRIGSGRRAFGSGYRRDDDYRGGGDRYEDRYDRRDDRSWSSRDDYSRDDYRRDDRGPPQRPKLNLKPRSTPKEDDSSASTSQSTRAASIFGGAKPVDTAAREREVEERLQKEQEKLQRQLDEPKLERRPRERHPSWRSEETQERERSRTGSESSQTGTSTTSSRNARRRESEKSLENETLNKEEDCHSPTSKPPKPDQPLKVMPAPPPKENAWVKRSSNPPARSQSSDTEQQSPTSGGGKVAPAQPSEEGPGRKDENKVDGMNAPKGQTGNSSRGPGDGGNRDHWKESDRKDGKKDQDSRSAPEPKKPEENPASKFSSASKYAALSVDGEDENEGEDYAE

Question: Which IC50 ([1]; stimulated Jurkat T cells, listed as DMDA PatA 3, read-out: IC50, inhibition of IL-2 production / IL-2 reporter gene) does the source give for `CC(/C=C/C(C)=C/[C@@H]1Cc2nc(cs2)CCCCC(=O)O[C@@H](C)C/C(C)=C/C=C\C(=O)O1)=C\CN(C)C` [compound 3, desmethyl, desamino-pateamine A] here?
Answer: The IC50 was 0.8 ± 0.3 nM.

Question: What about the IC50 ([1]; stimulated Jurkat T cells, listed as DMDA PatA, read-out: IC50, inhibition of IL-2 production / IL-2 reporter gene) of the same molecule?
Answer: Its IC50 is 0.81 ± 0.27 nM.

Question: What about the IC50 ([1]; transfected Jurkat cells, same population of Jurkat T cells, read-out: IC50) of the same molecule?
Answer: Its IC50 is 0.808 nM.

Question: What about the “stable in CDCl3” value (stability in CDCl3) of the same molecule?
Answer: Its value is 3-4 weeks.

Question: And the “activity in cell proliferation assays” value (cancer cell lines)?
Answer: The value was “retain most of the activity of PatA”.

Question: What about the “effect on protein synthesis” value [2] of the same molecule?
Answer: The value was “inhibited protein synthesis”.

Question: What about the “effect on RNA synthesis” value [3] of the same molecule?
Answer: Its value is “secondary effect on RNA synthesis”.

Question: And the “competition with B-PatA for eIF4A binding” value (eIF4A)?
Answer: Its value is “competitive”.

Question: And the “effect on eIF4A-eIF4B interaction” value (eIF4A-eIF4B)?
Answer: Its value is “enhancement of eIF4A-eIF4B interaction”.

Question: What does the source list for `CC(/C=C/C(C)=C/[C@@H]1Cc2nc(cs2)[C@@H](C)C[C@@H](N)CC(=O)O[C@@H](C)C/C(C)=C/C=C\C(=O)O1)=C\CN(C)C` [Pat A (1), Pateamine A]?
Answer: IC50 ([1]; stimulated Jurkat T cells, listed as native pateamine A, read-out: IC50, inhibition of IL-2 production / IL-2 reporter gene): 4.01 ± 0.94 nM; IC50 ([1]; stimulated Jurkat T cells, read-out: IC50, inhibition of IL-2 production / IL-2 reporter gene): 4 ± 0.9 nM; decomposes in CDCl3 (stability in CDCl3): < 10 min; IC50 (cancer cell lines; all cancer cell lines (FIG. 12), read-out: IC50, inhibition of proliferation): < 1 nM; IC50 ([2]; 1 h treatment, read-out: IC50, inhibition of protein synthesis): 3.3 nM; effect on RNA synthesis [3]: inhibitory effect on RNA synthesis; competition with B-PatA for eIF4A binding (eIF4A): effectively competed away; effect on eIF4A-eIF4B interaction (eIF4A-eIF4B): increase in amount of eIF4B observed

Reference: patent publication US8841285B2, “Potent immunosuppressive agents, derivatives and uses” (priority 2002, dated 2014)
